Laboratory results reported in patent publication US20070054834A1, “Quaternary ammonium halides for treatment of infectious conditions” (NanoBio Corporation, priority 2005, published 2007).

Tested on: S. aureus ATCC 6538
Test: Microbicidal effect of CPC on S. aureus cultures (log reduction in count)
Format: cell-based, Staphylococcus aureus
Settings: incubated 10 minutes at 37° C
Description: The microbicidal effect of cetyl pyridinium chloride (CPC) was tested using a strain of Staphylococcus aureus. Specifically, S. aureus ATCC 6538 cultures were placed in three different test tubes. Different concentrations (0.1%, 0.01% or 0.001%) of CPC were added to each of the test tubes. The mixture of CPC and S. aureus was incubated for 10 minutes on a tube rotator at 37° C. The results are shown below in Table 1 as the log reduction in S. aureus count.

## CCCCCCCCCCCCCCCC[n+]1ccccc1 [CPC, cetyl pyridinium chloride]
CPC concentration 0.001%
  Log reduction in S. aureus count: 3.4
CPC concentration 0.01%
  Log reduction in S. aureus count: 5.3
CPC concentration 0.1%
  Log reduction in S. aureus count: 5.3
